Data: ChEMBL document CHEMBL3885861, “Open TG-GATES”

Species: Rattus norvegicus
Assay: Open TG-GATES - Regimen: Single
Type: toxicity, organism-based, Sprague-Dawley
Parameters: regimen Single, gender Male, age 6 weeks
Settings: in vivo, po, 0 mg/kg, route gavage, dose level Control; for APTT / Bas / Eos / Fbg / Hb / Ht / Lym / MCH / MCHC / MCV / Mono / Neu / PT / Plat / RBC / Ret / WBC: tissue Blood; for KIDNEY_L / KIDNEY_R / KIDNEY_TOTAL: tissue Kidney; for LIVER: tissue Liver; for A/G / ALP / ALT / AST / BUN / CRE / Ca / Cl / DBIL / GLC / IP / K / LDH / Na / PL / RALB / TBIL / TC / TG / TP / gamma-GTP: tissue Plasma

Cn1c(=O)c2[nH]cnc2n(C)c1=O.O [THEOPHYLLINE]
TERMINAL_BW (3 h): 221.7 g | APTT (3 h): 22.2 s | Bas (3 h): 0% | Eos (3 h): 0.8% | Fbg (3 h): 289.8 mg/dL | Hb (3 h): 13.1 g/dL | Ht (3 h): 39.5% | Lym (3 h): 83.2% | MCH (3 h): 20.7 pg | MCHC (3 h): 33.2% | MCV (3 h): 62.5 fL | Mono (3 h): 1.8% | Neu (3 h): 13.6% | PT (3 h): 15.5 s | Plat (3 h): 119 x10_4/uL | RBC (3 h): 632.2 x10_4/ul | Ret (3 h): 8.4% | WBC (3 h): 101.2 x10_2/uL | KIDNEY_L (3 h): 1 g | KIDNEY_R (3 h): 1 g | KIDNEY_TOTAL (3 h): 2 g | LIVER (3 h): 10.3 g | A/G (3 h): 1.3 | ALP (3 h): 1309 IU/L | ALT (3 h): 43.6 IU/L | AST (3 h): 70 IU/L | BUN (3 h): 13.8 mg/dL | CRE (3 h): 0.2 mg/dL | Ca (3 h): 10.5 mg/dL | Cl (3 h): 105 meq/L | DBIL (3 h): 0 mg/dL | GLC (3 h): 190.4 mg/dL | IP (3 h): 8.8 mg/dL | K (3 h): 4.2 meq/L | LDH (3 h): 179 IU/L | Na (3 h): 142.6 meq/L | PL (3 h): 135.8 mg/dL | RALB (3 h): 3 g/dL | TBIL (3 h): 0.018 mg/dL | TC (3 h): 77.4 mg/dL | TG (3 h): 49.2 mg/dL | TP (3 h): 5.3 g/dL | gamma-GTP (3 h): 1.2 IU/L | TERMINAL_BW (6 h): 213.2 g | APTT (6 h): 21.5 s | Bas (6 h): 0% | Eos (6 h): 0.6% | Fbg (6 h): 300.6 mg/dL | Hb (6 h): 13.7 g/dL | Ht (6 h): 40.9% | Lym (6 h): 82.2% | MCH (6 h): 20.8 pg | MCHC (6 h): 33.4% | MCV (6 h): 62.3 fL | Mono (6 h): 2.6% | Neu (6 h): 13.2% | PT (6 h): 15.6 s | Plat (6 h): 118.7 x10_4/uL | RBC (6 h): 657.2 x10_4/ul | Ret (6 h): 7.4% | WBC (6 h): 102.6 x10_2/uL | KIDNEY_L (6 h): 1 g | KIDNEY_R (6 h): 1 g | KIDNEY_TOTAL (6 h): 1.9 g | LIVER (6 h): 9.1 g | A/G (6 h): 1.2 | ALP (6 h): 1402.8 IU/L | ALT (6 h): 39.8 IU/L | AST (6 h): 75.6 IU/L | BUN (6 h): 10.8 mg/dL | CRE (6 h): 0.1 mg/dL | Ca (6 h): 10.4 mg/dL | Cl (6 h): 105.8 meq/L | DBIL (6 h): 0 mg/dL | GLC (6 h): 183.8 mg/dL | IP (6 h): 9.3 mg/dL | K (6 h): 4.4 meq/L | LDH (6 h): 202 IU/L | Na (6 h): 142.6 meq/L | PL (6 h): 124.6 mg/dL | RALB (6 h): 2.9 g/dL | TBIL (6 h): 0.024 mg/dL | TC (6 h): 72.8 mg/dL | TG (6 h): 48.2 mg/dL | TP (6 h): 5.4 g/dL | gamma-GTP (6 h): 1 IU/L | TERMINAL_BW (9 h): 212.6 g | APTT (9 h): 22.9 s | Bas (9 h): 0% | Eos (9 h): 0.8% | Fbg (9 h): 310.2 mg/dL | Hb (9 h): 13.3 g/dL | Ht (9 h): 39.9% | Lym (9 h): 77.6% | MCH (9 h): 20.5 pg | MCHC (9 h): 33.3% | MCV (9 h): 61.6 fL | Mono (9 h): 2.4% | Neu (9 h): 18% | PT (9 h): 15.8 s | Plat (9 h): 119 x10_4/uL | RBC (9 h): 649.6 x10_4/ul | Ret (9 h): 7.5% | WBC (9 h): 79.6 x10_2/uL | KIDNEY_L (9 h): 1 g | KIDNEY_R (9 h): 1 g | KIDNEY_TOTAL (9 h): 2 g | LIVER (9 h): 8.6 g | A/G (9 h): 1.2 | ALP (9 h): 1444.4 IU/L | ALT (9 h): 35.2 IU/L | AST (9 h): 70.4 IU/L | BUN (9 h): 12.6 mg/dL | CRE (9 h): 0.2 mg/dL | Ca (9 h): 10.8 mg/dL | Cl (9 h): 105.8 meq/L | DBIL (9 h): 0 mg/dL | GLC (9 h): 188 mg/dL | IP (9 h): 9.2 mg/dL | K (9 h): 4.3 meq/L | LDH (9 h): 180.6 IU/L | Na (9 h): 140.8 meq/L | PL (9 h): 125.6 mg/dL | RALB (9 h): 3.1 g/dL | TBIL (9 h): 0.022 mg/dL | TC (9 h): 73.2 mg/dL | TG (9 h): 52.8 mg/dL | TP (9 h): 5.5 g/dL | gamma-GTP (9 h): 1 IU/L | TERMINAL_BW (24 h): 228.3 g | APTT (24 h): 21.9 s | Bas (24 h): 0% | Eos (24 h): 1% | Fbg (24 h): 291.2 mg/dL | Hb (24 h): 13.6 g/dL | Ht (24 h): 40.4% | Lym (24 h): 82.2% | MCH (24 h): 20.8 pg | MCHC (24 h): 33.7% | MCV (24 h): 61.5 fL | Mono (24 h): 2.6% | Neu (24 h): 13% | PT (24 h): 15.9 s | Plat (24 h): 115.8 x10_4/uL | RBC (24 h): 657 x10_4/ul | Ret (24 h): 6.9% | WBC (24 h): 97 x10_2/uL | KIDNEY_L (24 h): 1 g | KIDNEY_R (24 h): 1 g | KIDNEY_TOTAL (24 h): 2 g | LIVER (24 h): 10.4 g | A/G (24 h): 1.2 | ALP (24 h): 1398.8 IU/L | ALT (24 h): 40.8 IU/L | AST (24 h): 69.4 IU/L | BUN (24 h): 16.6 mg/dL | CRE (24 h): 0.2 mg/dL | Ca (24 h): 10.9 mg/dL | Cl (24 h): 106.2 meq/L | DBIL (24 h): 0 mg/dL | GLC (24 h): 193.4 mg/dL | IP (24 h): 7.7 mg/dL | K (24 h): 4.3 meq/L | LDH (24 h): 221 IU/L | Na (24 h): 143.4 meq/L | PL (24 h): 151.6 mg/dL | RALB (24 h): 3 g/dL | TBIL (24 h): 0.008 mg/dL | TC (24 h): 80.4 mg/dL | TG (24 h): 100.2 mg/dL | TP (24 h): 5.5 g/dL | gamma-GTP (24 h): 1.2 IU/L
